According to ChEMBL document CHEMBL1201862, “PubChem BioAssay data set” (2004):
Structures can show the parent of a compound that is named as a salt. Activity calls are given as the source filed them.

How the values were obtained:
Hexokinase HKDC1 = target: T1, Hexokinase HKDC1 (Homo sapiens, UniProt Q2TB90); test: SAR analysis of small molecule inhibitors of hexokinase domain containing I (HKDC1). [Related pubchem assays (depositor defined):AID493160, AID493190]; format: functional
T1 sequence (Q2TB90 whole entry): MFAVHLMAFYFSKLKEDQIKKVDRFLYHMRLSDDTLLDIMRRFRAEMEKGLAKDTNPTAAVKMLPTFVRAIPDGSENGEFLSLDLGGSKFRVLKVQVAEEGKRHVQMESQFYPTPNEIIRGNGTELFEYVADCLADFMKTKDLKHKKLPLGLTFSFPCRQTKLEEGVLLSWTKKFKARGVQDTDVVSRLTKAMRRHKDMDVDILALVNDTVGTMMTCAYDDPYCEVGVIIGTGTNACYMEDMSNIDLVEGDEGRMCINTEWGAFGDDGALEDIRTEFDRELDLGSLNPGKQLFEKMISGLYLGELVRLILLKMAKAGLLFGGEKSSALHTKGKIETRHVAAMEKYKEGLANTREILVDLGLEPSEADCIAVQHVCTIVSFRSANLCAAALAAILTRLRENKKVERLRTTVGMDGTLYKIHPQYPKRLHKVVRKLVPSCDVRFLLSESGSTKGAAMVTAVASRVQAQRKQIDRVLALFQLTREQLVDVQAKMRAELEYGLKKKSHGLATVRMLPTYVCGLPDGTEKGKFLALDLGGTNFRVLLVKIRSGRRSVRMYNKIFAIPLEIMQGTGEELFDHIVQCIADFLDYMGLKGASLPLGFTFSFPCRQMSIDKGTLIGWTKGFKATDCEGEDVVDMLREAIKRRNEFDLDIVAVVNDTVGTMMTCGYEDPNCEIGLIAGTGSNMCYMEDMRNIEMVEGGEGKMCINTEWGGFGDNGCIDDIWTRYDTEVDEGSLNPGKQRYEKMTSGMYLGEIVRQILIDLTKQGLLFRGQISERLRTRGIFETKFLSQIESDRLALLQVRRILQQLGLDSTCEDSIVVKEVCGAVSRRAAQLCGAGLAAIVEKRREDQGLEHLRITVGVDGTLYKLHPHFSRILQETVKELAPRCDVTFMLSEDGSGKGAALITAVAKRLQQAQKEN

Hexokinase-1 = target: T2, Hexokinase-1 (Homo sapiens, UniProt P19367); test: SAR analysis of small molecule inhibitors of hexokinase domain containing I (HKDC1) in the hexokinase 1 selectivity assay. [Related pubchem assays (depositor defined):AID493160, AID493190]; format: functional
T2 sequence (P19367 whole entry): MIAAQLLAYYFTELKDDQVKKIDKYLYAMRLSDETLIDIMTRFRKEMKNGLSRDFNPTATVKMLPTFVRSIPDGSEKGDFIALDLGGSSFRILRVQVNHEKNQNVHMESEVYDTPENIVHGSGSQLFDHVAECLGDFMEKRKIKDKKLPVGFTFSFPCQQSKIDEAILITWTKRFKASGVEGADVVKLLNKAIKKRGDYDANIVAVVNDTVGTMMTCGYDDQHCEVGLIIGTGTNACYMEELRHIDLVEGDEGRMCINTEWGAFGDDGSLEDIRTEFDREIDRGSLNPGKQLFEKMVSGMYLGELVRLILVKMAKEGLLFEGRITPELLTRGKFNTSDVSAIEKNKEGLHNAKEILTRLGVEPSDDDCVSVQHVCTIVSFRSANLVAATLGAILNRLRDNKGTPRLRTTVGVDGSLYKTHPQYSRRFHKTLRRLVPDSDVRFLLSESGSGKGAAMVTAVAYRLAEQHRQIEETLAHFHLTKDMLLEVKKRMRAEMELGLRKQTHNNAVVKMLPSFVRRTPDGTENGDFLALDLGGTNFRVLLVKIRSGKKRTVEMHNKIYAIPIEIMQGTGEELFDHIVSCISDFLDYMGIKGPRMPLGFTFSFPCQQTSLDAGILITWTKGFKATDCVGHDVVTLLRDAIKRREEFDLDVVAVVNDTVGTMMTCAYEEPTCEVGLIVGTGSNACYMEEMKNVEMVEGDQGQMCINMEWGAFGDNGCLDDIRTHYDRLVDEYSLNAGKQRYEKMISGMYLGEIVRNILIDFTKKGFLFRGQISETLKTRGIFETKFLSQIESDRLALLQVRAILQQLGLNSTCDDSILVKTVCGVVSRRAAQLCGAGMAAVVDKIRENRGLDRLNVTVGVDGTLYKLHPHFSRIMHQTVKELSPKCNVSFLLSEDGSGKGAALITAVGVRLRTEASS

cells [1] = format: functional, cell-based
cells [2] = format: functional, cell-based; remark: listed apart in the source
[3] = target: Beta-2 adrenergic receptor (Homo sapiens, UniProt P07550); test: beta2AR agonists driving receptor internalization, dose response, cell-based, FAP fluorogen, flow cytometry, cherry pick 1 (AID 588763); format: functional
Chain of Beta-2 adrenergic receptor (P07550 whole entry): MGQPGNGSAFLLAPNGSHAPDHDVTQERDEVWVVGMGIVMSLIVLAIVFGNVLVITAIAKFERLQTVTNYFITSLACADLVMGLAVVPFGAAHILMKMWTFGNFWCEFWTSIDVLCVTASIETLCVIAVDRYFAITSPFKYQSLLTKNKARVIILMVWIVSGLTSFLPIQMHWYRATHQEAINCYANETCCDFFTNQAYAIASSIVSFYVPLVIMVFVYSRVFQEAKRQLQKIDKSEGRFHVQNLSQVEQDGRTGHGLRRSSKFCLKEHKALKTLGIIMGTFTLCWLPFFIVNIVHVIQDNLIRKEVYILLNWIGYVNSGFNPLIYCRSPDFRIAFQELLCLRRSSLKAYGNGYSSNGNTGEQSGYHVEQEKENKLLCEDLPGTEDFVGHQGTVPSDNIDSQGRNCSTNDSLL

Cytochrome P450 2C19 = Cytochrome P450 2C19 (Homo sapiens, UniProt P33261); test: Cytochrome panel assay with activity outcomes. Panel member name: p450-cyp2c19 Compounds with AC50 equal or less than 10 uM are considered active; format: functional; conditions: read-out: AC50
Chain of Cytochrome P450 2C19 (P33261 whole entry): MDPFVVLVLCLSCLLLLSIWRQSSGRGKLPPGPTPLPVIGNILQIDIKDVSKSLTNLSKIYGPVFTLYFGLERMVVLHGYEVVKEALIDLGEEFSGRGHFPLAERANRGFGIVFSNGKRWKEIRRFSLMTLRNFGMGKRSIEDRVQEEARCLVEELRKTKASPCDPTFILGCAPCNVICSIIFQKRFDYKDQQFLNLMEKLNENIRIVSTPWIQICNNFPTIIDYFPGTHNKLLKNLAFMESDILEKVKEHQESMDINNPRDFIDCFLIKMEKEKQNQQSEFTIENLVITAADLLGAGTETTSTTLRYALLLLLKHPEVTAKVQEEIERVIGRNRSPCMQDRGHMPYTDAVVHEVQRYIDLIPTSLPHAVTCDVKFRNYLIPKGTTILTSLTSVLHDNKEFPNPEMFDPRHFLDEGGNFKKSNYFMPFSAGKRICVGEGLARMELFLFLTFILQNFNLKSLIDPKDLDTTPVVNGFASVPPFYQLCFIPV

Cytochrome P450 2D6 = Cytochrome P450 2D6 (Homo sapiens, UniProt P10635);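 further: CYP2D6 member of a cytochrome P450 panel assay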
Chain of Cytochrome P450 2D6 (P10635 whole entry): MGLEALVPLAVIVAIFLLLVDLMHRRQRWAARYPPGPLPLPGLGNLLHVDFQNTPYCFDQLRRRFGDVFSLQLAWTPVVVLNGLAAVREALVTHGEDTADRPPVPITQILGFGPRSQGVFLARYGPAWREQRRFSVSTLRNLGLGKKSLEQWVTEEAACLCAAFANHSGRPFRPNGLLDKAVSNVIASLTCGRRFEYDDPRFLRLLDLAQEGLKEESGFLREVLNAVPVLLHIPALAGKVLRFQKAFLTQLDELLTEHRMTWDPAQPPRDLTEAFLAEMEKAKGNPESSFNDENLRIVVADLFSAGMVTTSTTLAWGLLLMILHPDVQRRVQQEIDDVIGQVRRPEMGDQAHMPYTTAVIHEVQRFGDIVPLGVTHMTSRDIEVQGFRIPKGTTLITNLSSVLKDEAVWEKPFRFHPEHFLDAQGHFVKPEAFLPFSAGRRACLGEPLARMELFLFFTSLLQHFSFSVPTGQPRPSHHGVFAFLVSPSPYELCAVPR

[4] = target: T3, Type-1 angiotensin II receptor (Homo sapiens, UniProt P30556); test: AT1 receptor antagonists, dose response, selectivity assay for APJ receptor antagonist project, cell-based, uHTS hits (AID 463214); format: functional;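 further: antagonist potency against angiotensin II stimulated AT1 response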
T3 sequence (P30556 whole entry): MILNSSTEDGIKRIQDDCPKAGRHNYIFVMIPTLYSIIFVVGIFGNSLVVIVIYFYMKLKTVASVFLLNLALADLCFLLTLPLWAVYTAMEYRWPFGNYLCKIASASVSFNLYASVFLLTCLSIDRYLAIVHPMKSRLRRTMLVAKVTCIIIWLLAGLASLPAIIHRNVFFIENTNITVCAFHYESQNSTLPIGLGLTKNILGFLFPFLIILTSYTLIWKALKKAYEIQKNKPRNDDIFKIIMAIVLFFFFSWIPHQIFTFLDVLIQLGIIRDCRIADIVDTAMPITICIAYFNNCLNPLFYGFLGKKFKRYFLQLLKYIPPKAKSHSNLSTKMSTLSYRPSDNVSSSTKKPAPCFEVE

Protein skinhead-1 = target: T4, Protein skinhead-1 (Caenorhabditis elegans, UniProt P34707); format: functional
T4 sequence (P34707 whole entry): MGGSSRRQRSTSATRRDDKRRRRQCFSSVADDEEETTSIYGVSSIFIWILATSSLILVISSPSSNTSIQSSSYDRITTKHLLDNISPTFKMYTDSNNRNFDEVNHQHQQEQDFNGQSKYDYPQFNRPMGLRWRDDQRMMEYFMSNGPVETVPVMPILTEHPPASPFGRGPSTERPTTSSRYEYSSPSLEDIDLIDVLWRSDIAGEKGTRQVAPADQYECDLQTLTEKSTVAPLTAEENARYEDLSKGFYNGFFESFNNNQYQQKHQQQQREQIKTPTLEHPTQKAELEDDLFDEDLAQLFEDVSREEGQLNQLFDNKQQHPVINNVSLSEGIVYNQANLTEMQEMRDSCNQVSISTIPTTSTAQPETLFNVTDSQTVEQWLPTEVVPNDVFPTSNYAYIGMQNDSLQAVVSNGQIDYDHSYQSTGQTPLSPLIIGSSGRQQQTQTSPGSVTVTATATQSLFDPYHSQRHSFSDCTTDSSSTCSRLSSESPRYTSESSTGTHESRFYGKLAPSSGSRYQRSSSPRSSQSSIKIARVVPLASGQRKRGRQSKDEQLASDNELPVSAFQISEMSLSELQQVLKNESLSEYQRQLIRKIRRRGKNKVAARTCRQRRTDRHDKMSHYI

Beta-galactosidase = Beta-galactosidase (Escherichia coli, UniProt Q8VNN2); test: PubChem AID 485352; format: functional
Chain of Beta-galactosidase (Q8VNN2 whole entry): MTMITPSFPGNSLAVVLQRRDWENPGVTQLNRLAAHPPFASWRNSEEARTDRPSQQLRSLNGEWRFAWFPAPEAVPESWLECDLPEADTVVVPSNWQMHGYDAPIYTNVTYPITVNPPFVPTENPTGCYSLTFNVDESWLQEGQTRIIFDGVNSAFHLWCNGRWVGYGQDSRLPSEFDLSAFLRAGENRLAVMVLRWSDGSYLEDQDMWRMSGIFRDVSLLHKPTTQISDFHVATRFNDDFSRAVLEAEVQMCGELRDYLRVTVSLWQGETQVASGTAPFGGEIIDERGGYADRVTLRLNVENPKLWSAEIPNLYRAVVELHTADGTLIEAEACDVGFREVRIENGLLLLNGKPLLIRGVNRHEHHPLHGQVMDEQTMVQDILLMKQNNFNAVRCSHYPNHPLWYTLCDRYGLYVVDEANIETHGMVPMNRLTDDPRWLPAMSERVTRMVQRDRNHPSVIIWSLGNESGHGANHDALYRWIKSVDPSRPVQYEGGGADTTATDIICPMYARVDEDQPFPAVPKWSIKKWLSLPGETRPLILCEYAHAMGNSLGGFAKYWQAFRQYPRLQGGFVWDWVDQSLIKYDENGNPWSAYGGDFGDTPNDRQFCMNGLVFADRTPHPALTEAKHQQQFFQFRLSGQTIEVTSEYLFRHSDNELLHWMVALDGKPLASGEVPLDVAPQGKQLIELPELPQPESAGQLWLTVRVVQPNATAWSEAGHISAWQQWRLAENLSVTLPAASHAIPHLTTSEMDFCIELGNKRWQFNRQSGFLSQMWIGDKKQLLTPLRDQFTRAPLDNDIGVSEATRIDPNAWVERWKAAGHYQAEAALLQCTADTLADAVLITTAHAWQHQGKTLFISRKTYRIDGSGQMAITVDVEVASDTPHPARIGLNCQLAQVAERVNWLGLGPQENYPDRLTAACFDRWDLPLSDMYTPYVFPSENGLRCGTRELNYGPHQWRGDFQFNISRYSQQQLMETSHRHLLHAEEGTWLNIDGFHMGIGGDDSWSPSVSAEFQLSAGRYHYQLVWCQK

[5] = inhibitors of firefly luciferase expression or activity, dose response, H4 neuroglioma cells, luminescence (AID 1990); format: functional, cell-based
INS1 = test: beta cell apoptosis inhibitors, cytokine rescue, dose response, luminescence, retest (AID 449756); format: functional, cell-based; conditions: Rattus norvegicus;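 further: cell death triggered by IL-1 beta plus TNF-alpha plus IFN-gamma mixture; protective hits raise ATP signal compared with cytokine alone wells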
[6] = Luminescence Cell-Based Dose Response HTS to Identify Inhibitors of 5'UTR Stem-Loop Driven Prion Protein mRNA Translation in H4 Neuroglioblastoma Cells. [Related pubchem assays: 1827 (Project Summary), 1813 (Primary HTS)]; format: functional
[7] = target: T5, Heat shock factor protein 1 (Mus musculus, UniProt P38532); test: inhibition of MG132-induced HSE-luciferase signal, confirmation, cell-based, NIH3T3, luminescence, dose retest (AID 2382); format: functional;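 further: NIH3T3 fibroblasts with HSF1-driven luciferase reporter stressed by proteasome inhibitor MG132; luminescence from HSF1-driven luciferase expression after 8 hours of MG132 stress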
T5 sequence (P38532 whole entry): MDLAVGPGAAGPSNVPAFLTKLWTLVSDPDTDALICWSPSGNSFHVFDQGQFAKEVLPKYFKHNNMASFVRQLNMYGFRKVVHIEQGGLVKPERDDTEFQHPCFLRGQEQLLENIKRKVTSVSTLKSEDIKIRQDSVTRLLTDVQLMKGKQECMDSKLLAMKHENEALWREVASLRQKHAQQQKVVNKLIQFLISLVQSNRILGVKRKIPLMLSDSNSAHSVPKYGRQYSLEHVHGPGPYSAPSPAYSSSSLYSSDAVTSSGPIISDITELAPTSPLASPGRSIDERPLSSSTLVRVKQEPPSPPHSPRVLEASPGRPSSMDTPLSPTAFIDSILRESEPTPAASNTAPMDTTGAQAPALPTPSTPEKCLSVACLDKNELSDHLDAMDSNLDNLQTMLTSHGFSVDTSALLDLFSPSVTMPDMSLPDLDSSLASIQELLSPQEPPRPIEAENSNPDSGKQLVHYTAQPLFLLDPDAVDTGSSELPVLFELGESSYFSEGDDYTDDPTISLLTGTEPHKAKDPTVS

[8] = cytotoxicity in MIN6 insulinoma cells, dose response, cytotoxicity control, cell-based, mouse insulinoma (AID 2122); format: functional;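 further: confirmatory high-throughput counterscreen run to flag cytotoxic compounds; mouse MIN-6 beta cells carrying an insulin promoter eGFP reporter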
[9] = insulin promoter down-regulators in MIN6 cells, imaging, high-content screening, mouse beta cells (AID 1628); format: functional
[10] = target: Latent membrane protein 1 (Human herpesvirus 4 (strain B95-8), UniProt P03230); test: TES1-eGFP NF-kB reporter inhibition versus Tet-On dsRED, dose response, selectivity assay for LMP1 NF-kB inhibitor project, imaging, HEK293T, dual-color eGFP/dsRED, cherry-picks (AID 588398); format: functional, cell-based
Chain of Latent membrane protein 1 (P03230 whole entry): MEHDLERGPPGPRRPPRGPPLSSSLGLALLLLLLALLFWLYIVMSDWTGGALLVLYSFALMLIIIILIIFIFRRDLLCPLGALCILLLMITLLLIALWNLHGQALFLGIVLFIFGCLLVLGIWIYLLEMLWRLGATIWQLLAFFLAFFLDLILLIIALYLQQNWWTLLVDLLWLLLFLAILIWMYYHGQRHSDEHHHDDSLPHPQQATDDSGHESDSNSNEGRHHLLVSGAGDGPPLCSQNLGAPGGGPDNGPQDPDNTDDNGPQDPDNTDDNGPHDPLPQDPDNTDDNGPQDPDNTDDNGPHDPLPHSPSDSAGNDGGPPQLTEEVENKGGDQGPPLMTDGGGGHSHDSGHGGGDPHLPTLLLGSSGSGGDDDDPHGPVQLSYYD

HEK293 = test: inhibitors of LMP1-driven NF-kB reporter, dose response, cell-based, HEK293, luciferase, cherry-pick (AID 588343); format: functional; conditions: Homo sapiens
[11] = inhibitors of SNCA 5'UTR-driven reporter translation, confirmation, H4 neuroglioma cells, luminescence (AID 1988); format: functional, cell-based
[12] = target: Voltage-gated inwardly rectifying potassium channel KCNH2 (Homo sapiens, UniProt Q12809); conditions: Potency;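 further: confirmatory quantitative high-throughput screen measuring inhibition of hERG channel activity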
Chain of Voltage-gated inwardly rectifying potassium channel KCNH2 (Q12809 whole entry): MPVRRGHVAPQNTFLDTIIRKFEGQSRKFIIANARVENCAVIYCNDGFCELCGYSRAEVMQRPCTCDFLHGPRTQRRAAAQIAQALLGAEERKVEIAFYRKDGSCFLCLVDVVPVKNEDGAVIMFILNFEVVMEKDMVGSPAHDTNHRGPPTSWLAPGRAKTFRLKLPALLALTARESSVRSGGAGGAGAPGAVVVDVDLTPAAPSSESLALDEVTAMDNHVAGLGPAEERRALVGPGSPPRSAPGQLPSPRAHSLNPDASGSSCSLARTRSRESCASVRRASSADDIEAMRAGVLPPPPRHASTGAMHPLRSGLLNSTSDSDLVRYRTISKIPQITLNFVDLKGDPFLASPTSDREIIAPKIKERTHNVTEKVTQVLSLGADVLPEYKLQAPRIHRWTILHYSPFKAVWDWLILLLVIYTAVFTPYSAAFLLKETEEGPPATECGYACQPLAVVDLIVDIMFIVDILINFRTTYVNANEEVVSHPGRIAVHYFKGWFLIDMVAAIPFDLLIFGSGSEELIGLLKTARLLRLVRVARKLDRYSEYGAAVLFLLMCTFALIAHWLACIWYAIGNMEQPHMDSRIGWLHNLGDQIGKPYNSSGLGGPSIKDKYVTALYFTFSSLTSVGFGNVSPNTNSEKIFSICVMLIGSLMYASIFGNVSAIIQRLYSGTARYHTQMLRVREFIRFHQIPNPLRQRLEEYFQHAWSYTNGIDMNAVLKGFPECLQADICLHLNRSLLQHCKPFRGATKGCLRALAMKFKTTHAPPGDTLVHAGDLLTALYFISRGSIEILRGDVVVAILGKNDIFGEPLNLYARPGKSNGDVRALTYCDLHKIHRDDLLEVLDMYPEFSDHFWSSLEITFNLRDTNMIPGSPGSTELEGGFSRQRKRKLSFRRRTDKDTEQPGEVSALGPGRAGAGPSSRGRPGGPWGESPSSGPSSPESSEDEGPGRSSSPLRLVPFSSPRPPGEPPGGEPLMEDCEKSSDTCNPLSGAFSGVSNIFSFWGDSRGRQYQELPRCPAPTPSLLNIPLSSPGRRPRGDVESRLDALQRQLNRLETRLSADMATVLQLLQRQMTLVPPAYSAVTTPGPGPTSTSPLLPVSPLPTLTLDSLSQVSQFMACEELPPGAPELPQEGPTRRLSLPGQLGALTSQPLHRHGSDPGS

[13] = target: T6, Corticotropin-releasing factor receptor 2/Corticotropin-releasing factor-binding protein (Homo sapiens, UniProt P24387+Q13324); test: activators of CRF receptor 2 with binding protein – uHTS hits, confirmation (AID 602473); format: functional; conditions: read-out: EC50_Mean
T6 sequence (Q13324 whole entry): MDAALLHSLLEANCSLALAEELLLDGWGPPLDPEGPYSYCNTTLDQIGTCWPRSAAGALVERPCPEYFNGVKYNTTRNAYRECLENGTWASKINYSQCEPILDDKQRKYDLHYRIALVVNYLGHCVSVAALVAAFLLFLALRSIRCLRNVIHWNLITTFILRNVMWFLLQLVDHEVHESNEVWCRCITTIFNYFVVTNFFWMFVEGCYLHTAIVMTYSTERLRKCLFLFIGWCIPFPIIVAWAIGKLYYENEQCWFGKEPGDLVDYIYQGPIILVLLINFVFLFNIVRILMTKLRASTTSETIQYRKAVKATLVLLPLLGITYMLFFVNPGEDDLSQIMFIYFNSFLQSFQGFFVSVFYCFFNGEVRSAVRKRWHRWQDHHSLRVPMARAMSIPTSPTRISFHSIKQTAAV
T6 sequence (P24387 whole entry): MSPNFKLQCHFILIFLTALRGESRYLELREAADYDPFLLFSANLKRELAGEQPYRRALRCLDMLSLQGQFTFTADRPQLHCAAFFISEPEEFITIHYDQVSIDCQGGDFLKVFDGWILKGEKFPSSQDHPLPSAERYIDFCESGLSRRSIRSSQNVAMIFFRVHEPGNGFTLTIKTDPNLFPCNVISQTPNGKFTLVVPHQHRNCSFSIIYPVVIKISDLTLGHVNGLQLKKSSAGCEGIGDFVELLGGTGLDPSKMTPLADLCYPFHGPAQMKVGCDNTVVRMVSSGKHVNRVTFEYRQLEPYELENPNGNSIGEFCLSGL

Cc1ccc(/C=C/c2nc3ccccc3c(=O)n2CCc2ccccc2)cc1
IC50 (Hexokinase HKDC1): > 80 µM (inactive)
IC50 (Hexokinase-1): > 80 µM (inactive)

COc1ccccc1-c1cc(C(F)(F)F)nc(S(=O)(=O)CCCC(=O)NC(C)C)n1
EC50 (cells [1]): > 350 µM (not active)
EC50 (cells [2]): 51.6 µM (active)
EC50 [3]: 9.33 µM (active)
AC50 (Cytochrome P450 2C19): 6.31 µM (inconclusive)
AC50 (Cytochrome P450 2D6): inconclusive

C=CCn1c(CCNC(=O)c2cccs2)nnc1SCC(=O)c1cccc([N+](=O)[O-])c1
EC50 [3]: 0.133 µM (active)

Cc1ccccc1NC(=O)CCC(=O)OCC(=O)c1cccc([N+](=O)[O-])c1
IC50 [4]: 33.6 µM (not active)
IC50 (Protein skinhead-1): > 100 µM (inactive)
EC50 (Beta-galactosidase): > 40 µM (inactive)

O=C(COC(=O)c1cccnc1Cl)c1ccc(Cl)cc1Cl
IC50 [4]: 35.4 µM (not active)
EC50 (Beta-galactosidase): > 40 µM (inactive)

O=C(N/N=C/c1ccc[nH]1)c1ccc(COc2cccc3cccnc23)cc1
EC50 [5]: 8.34 µM (active)
AC50 (INS1): 1.05 µM (active)
EC50 [6]: > 120 µM (not active)
EC50 [7]: 0.16 µM (active)
IC50 [8]: 0.574 µM (active)
IC50 [9]: 0.65 µM (active)
AC50 [10]: 9.15 µM (active)
AC50 (HEK293): 6.13 µM (active)
EC50 [11]: 9.79 µM (active)

CCCN1CCC[C@@H]2Cc3n[nH]cc3C[C@H]21 [QUINPIROLE HYDROCHLORIDE]
AC50 [12]: 11.2 µM (inconclusive)

CN1CCN(CC/C=C2/c3ccccc3Sc3ccc(S(=O)(=O)N(C)C)cc32)CC1
AC50 [12]: 2.51 µM (inconclusive)

O=c1c([N+](=O)[O-])cn(Cc2ccccc2)c(=O)n1Cc1ccccc1
EC50 [13]: > 53 µM (inactive)
AC50 [10]: 108 µM (active)
